Where two headings read alike, the source gives them in different places.
Experiments:
[1] = Animal parameters (food, body weight, liver weight, mortality) in rats; format: in vivo, male Sprague-Dawley rats; conditions: 4 days; for mortality at 96 h: in vivo, po, read-out: mortality (deaths per group); for mortality at 96 h / body wt., percent of control / lw/bw (liver weight/body weight), percent of control: rat
Description: A typical experiment consisted of 4-6 groups of rats (N=5 per group) with 1 group being a control which received no MDL compound and the other groups being treated with 0.3% MDL compound. Some of the compounds were either repeated at 0.3% or evaluated again at the lower dose of 0.1%. Male Sprague-Dawley rats, 50-100 g, (Harlan Laboratories, Indianapolis, Ind.) were housed in groups of 5, fed ad libitum water and Purina Rodent chow (#5002) with or without MDL compound as a dietary admixture for 4 days. Dietary admixtures (0.3%) were made by mixing 1.2 grams of an MDL compound with 400 grams of Purina rodent chow (#5002). The MDL compound was mixed with approximately 50 grams of food using a mortar and pestle. This was added to the remainder of the food and mixed for 3 hours on a rotary mixer. In the morning of day 5, non-fasted rats were anesthetized with carbon dioxide, and blood was collected by cardiac puncture. Rats were sacrificed by cervical dislocation. Body weights and liver weights were recorded in grams. Food consumption was recorded as grams.cndot.day^-1.cndot.rat^-1. Deaths were recorded as mortality. Aliquots of fresh serum were used for clinical chemistries, thiobarbituric acid reactive substances (TBARS) and conjugated diene measurements. Aliquots of serum (~0.5mL) and whole livers were frozen at -20° C. for compound and metabolite concentration determination at a later time.

VCAM-1 = test: Cell surface ELISA for VCAM-1 in human aortic smooth muscle cells (HASMC), interleukin-4 induced; format: cell-based; conditions: 50 μm; for VCAM-1 (Avg.) % inh.: average of HSMC-1 to HSMC-3; for HSMC-1 % inh. of VCAM-1: experiment HSMC-1, interleukin-4, about 20 hr; for HSMC-2 % inh. of VCAM-1: experiment HSMC-2, interleukin-4, about 20 hr; for HSMC-3 % inh. of VCAM-1: experiment HSMC-3, interleukin-4, about 20 hr
Procedure: Cell Surface ELISA for VCAM-1/ICAM-1
Proliferating human umbilical vein endothelial cells (HUVEC) or human aortic smooth muscle cells (HASMC) from Clonetics (San Diego, Calif.) were plated onto 96-well plates in 100 μL medium per well at 20,000 cells per cm^2. The cultures were maintained in growth medium (EGM or SMGM2, Clonetics, San Diego, Calif.) for two days prior to addition of cytokines or drugs. Cytokines plus or minus compounds were added for 20 to 24 hours prior to analysis for adhesion molecule levels. Tumor necrosis factor (Genzyme, Cambridge, Mass.) was added to cultures at 500-1000 units/mL. Interleukin-4 (GIBCO-BRL, Gaithersburg, Md.) was added to cultures at 100-200 pg/mL. (Additions were made by transferring 100 [μL of cytokines plus compounds serially diluted on a separate 96-well plate into the plates containing cells. The medium on the cultures was not exchanged prior to addition of effectors). The culture medium was removed, and the monolayers were washed twice with Hanks buffered saline solution (HBSS) at room temperature. The primary antibody (anti-human VCAM-1 from Upstate Biotechnology, Inc., Lake Placid, N.Y. or anti-human ICAM-1 from Immunotech, Inc., Westbrook, Me.) was added to each well (1 μg/mL in HBSS plus 5% newborn calf serum, GIBCO-BRL, Gaithersburg, Md.) and incubated at 37° C. for 1 hr. The wells were washed twice with HBSS, then 100 μL of a 1/1000 dilution of goat anti-mouse IgG conjugated to horse radish peroxidase (BioRad, Hercules, Calif.) in HBSS plus 5% newborn calf serum was added to each well and incubated for 1 hr at 37° C. The wells were washed three times with HBSS, then 100 μL of TMB substrate (BioRad, Hercules, Calif.) was added to each well. The reaction was stopped after blue color developed by addition of 50 μL of 1N H2 SO4. Absorbance is measured at 450 nm with a plate reader. IC50 values were determined from curves of absorbance values obtained from serial dilutions of compounds (dissolved in dimethyl sulfoxide).
The IC50 value is defined as the drug concentration that inhibits the cytokine-induced adhesion molecule expression by 50%. Maximal values for adhesion molecule expression in cytokine-induced cultures was […] the basal level of adhesion molecule expression (minus cytokines) in the cultures to determine the level of induction. […] Each drug concentration was tested in quadruplicate wells. Single point tests of compounds at 50 μM were assayed as described for IC50 determinations, except that the data represent the level of inhibition without correction for basal expression. (Basal adhesion molecule expression was 10-20% of the total induced expression). Table 1 summarizes the ability of various compounds of this invention to inhibit VCAM-1 using human aortic smooth muscle cells (HASMC). In these experiments, the cells were coincubated with interleukin-4 and the compounds listed about 20 hr before assaying cell surface VCAM-1 levels. Each column represents a separate experiment.

| SMILES | food (grams eaten per day per rat), percent of control ([1]; diet 0.3%) [%] | mortality at 96 h ([1]; diet 0.3%) [%] | body wt., percent of control ([1]; diet 0.3%) [%] | lw/bw (liver weight/body weight), percent of control ([1]; diet 0.3%) [%] | VCAM-1 (Avg.) % inh. (VCAM-1) [%] | HSMC-1 % inh. of VCAM-1 (VCAM-1) [%] | HSMC-2 % inh. of VCAM-1 (VCAM-1) [%] | HSMC-3 % inh. of VCAM-1 (VCAM-1) [%] | food (grams eaten per day per rat), percent of control ([1]; diet 0.1%) [%] | mortality at 96 h ([1]; diet 0.1%) [%] | body wt., percent of control ([1]; diet 0.1%) [%] | lw/bw (liver weight/body weight), percent of control ([1]; diet 0.1%) [%] |
| --- | --- | --- | --- | --- | --- | --- | --- | --- | --- | --- | --- | --- |
| CC(C)(C)c1cc(OC[Si](C)(C)c2ccccc2)cc(C(C)(C)C)c1OC(=O)CCC(=O)O [MDL 103,076, 2,6-Di-t-butyl-4-[(dimethylphenylsilyl)methyloxy]phenol succinic acid ester] | 93 | 0 | 105 | 110 | 43.9 | 30.6 | 55.0 | 46.0 |  |  |  |  |
| CC(C)(C)c1cc(SC[Si](C)(C)c2ccccc2)cc(C(C)(C)C)c1OC(=O)CCC(=O)O [MDL 103,141, 2,6-Di-t-butyl-4-[(dimethylphenylsilyl)methylthio]phenol sucinic acid ester] | 87 | 0 | 91 | 96 | 31.2 | 13.7 | 47.0 | 33.0 |  |  |  |  |
| CC(=O)Oc1c(C(C)(C)C)cc(OC[Si](C)(C)c2ccccc2)cc1C(C)(C)C [MDL 103,377, 2,6-Di-t-butyl-4-[(dimethylphenylsilyl)methyloxy]phenol acetic acid ester] | 82 | 0 | 97 | 105 | 45.5 |  | 45.0 | 46.0 |  |  |  |  |
| CC(C)(C)c1cc(OC[Si](C)(C)c2ccccc2)ccc1O [MDL 103,491, 2-t-Butyl-4-[(dimethylphenylsilyl)methyloxy]phenol] | 89 | 0 | 100 | 130 | 53.0 |  | 57.0 | 49.0 | 92 | 0 | 95 | 106 |
| CN(C)c1ccc([Si](C)(C)COc2cc(C(C)(C)C)c(O)c(C(C)(C)C)c2)cc1 [MDL 104,556, 2,6-Di-t-butyl-4-[(4-N,N-dimethylaminophenyldimethylsilyl)methyloxy]phenol] | 68 | 0 | 87 | 120 | 56.7 | 54.1 | 58.0 | 58.0 | 102 | 0 | 103 | 106 |
| CC(C)(C)c1cc(OC[Si](C)(c2ccccc2)c2ccccc2)cc(C(C)(C)C)c1O [MDL 104,599, 2,6-Di-t-butyl-4-[(diphenylmethylsilyl)methloxy]phenol] | 103 | 0 | 93 | 107 | 45.7 | 50.1 | 38.0 | 49.0 |  |  |  |  |
| CC(C)(C)c1cc(OC[Si](C)(C)c2ccccc2)c(C(C)(C)C)cc1O [MDL 104,962, 2,5-Di-t-butyl-4-[(dimethylphenylsilyl)methyloxy]phenol] | 74 | 0 | 95 | 103 |  |  |  |  |  |  |  |  |
| Cc1cc(OC[Si](C)(C)c2ccccc2)c(C)c(C)c1O [MDL 105,314, 2,3,6-Trimethyl-4-[(dimethylphenylsdilyl)methloxy]phenol] | 109 | 0 | 111 | 118 | 28.2 | 8.7 | 38.0 | 38.0 |  |  |  |  |
| CC(=O)Oc1ccc(OC[Si](C)(C)c2ccccc2)cc1C(C)(C)C [MDL 105,443, 2-t-Butyl-4-[(dimethylphenylsilyl)methyloxy]phenol acetic acid ester] | 84 | 0 | 95 | 118 | 25.8 | 11.4 | 44.0 | 22.0 | 100 | 0 | 101 | 110 |
| CC(C)(C)c1cc(OC[Si](C)(C)c2ccc(C(F)(F)F)cc2)cc(C(C)(C)C)c1O [MDL 105,975, 2,6-Di-t-butyl-4-[(dimethyl-4-trifluoromethylphenylsilyl)methyloxy]phenol] | 98 | 0 | 100 | 113 | 19.8 |  | 20.0 | 51.0 | 106 | 0 | 98 | 105 |
| COc1ccc([Si](C)(C)COc2ccc(O)c(C(C)(C)C)c2)cc1 [MDL 106,834, 2-t-Butyl-4-[(dimethyl-p-methoxylphenylsilyl)methyloxy]phenol] | 91 | 0 | 95 | 132 |  |  |  |  |  |  |  |  |
